Laboratory results taken from PMC12189671, “Antioxidant Activity and Cytotoxicity Evaluation of New Catechol Hydrazinyl-Thiazole Derivatives as Potential Protectors in Retinal Degenerative Processes” (Antioxidants, 2025).

Experiments:
OR51E2 = tested on: OR51E2; set-up: method as in PMID 29249973; details: RPE cells; cited from earlier work
[1] = set-up: method as in PMID 30881661; details: free ICG, used as reference; cited from earlier work
[2] = Ferrous ions chelation assay (ferrozine)
Procedure: Solutions of the tested compounds or ethylenediaminetetraacetic acid disodium salt (EDTA-Na2), used as a positive control, were thoroughly mixed with 0.5 mL of FeSO4 (0.125 mM) and 0.5 mL of ferrozine (0.315 mM). After a 10-min incubation in the dark at room temperature, the absorbance was measured at λ = 562 nm.

[3] = DPPH radical scavenging assay; details: 30 min incubation, λ = 517 nm
Procedure: The DPPH^• radical scavenging assay is based on transferring a hydrogen atom from the tested compounds to the violet stable free radical DPPH^• (2,2-diphenyl-1-picrylhydrazyl radical), converting it into a yellow compound. The assay was conducted using tested compounds and references in concentrations ranging from 2 to 50 µM, according to our adaptation of the protocol of Brand-Williams et al.. The absorbance of the samples is given by the remaining unreacted reagent radical, and it is inversely proportional to the amount of DPPH^• neutralized. The absorbance of the samples was measured at λ = 517 nm after 30 min of incubation in the dark at room temperature. The DPPH^• radical scavenging activity of the compounds was calculated using Equation (1):(1) DPPH^• scavenging (%)=control absorbance−sample absorbance/control absorbance×100

[4] = Indirect 1O2 scavenging assay (ICG photo-generator, DPBF probe)
Procedure: The ^1O2 scavenging assay was employed using a previously established indirect protocol from our research group. In brief, indocyanine green (ICG), from Sigma–Aldrich (St. Louis, MO, USA), was utilized to induce ^1O2 production in the presence of 5a and 5b. Ascorbic acid was used as a reference antioxidant agent, and a blank sample without ^1O2 scavengers was prepared. The reaction mixtures were exposed to a Micro Raman System R-3000 (Photonitech, Singapore, Singapore) laser diode,(λ = 785 nm, 190 mW power) for a total time of 100 s. To evaluate the ^1O2 scavenging activity of the compounds 5a,b, the degradation of 1,3-diphenylisobenzofuran (DPBF), obtained from Alfa Aesar (Haverhill, MA, USA), was measured using a V-730 spectrophotometer (Jasco International Co., Ltd., Tokyo, Japan). To determine the ^1O2 quantum yields (Φ(^1O2)) of ICG in the presence of the studied molecules, the following equation was used: Φ(^1O2) = Φ(^1O2) ^ICG × ((S × F^ICG)/(S^ICG × F)), where S represents the slope of the absorbance difference of DPBF over time, F is the absorption correction factor (F = 1 − 10^−OD), and OD is the optical density at the excitation wavelength, λ = 785 nm. The Φ(^1O2) equal to 15.0% of free ICG was used as a reference. The concentrations utilized in the experiment were 0.1 mM for DPBF and 10^−5 M for ICG and the ^1O2 scavengers. Free DPBF was used as a control.
The efficacy of compounds 5a,b against ^1O2 was assessed using an indirect approach. ICG was used as a photo-induced ^1O2 generator alongside DPBF, serving as an indirect chemical probe capable of characterizing ^1O2 release in solution. This setup allowed us to evaluate the ^1O2 scavenging capacity of the tested molecules and compare their activity to a reference compound, specifically ascorbic acid. The samples were exposed to 785 nm laser radiation, and at 10-s intervals after irradiation, their UV-Vis absorption spectra were measured and analyzed (Figure 9). Subsequently, we determined the ^1O2 quantum yields (Φ(^1O2)) of ICG in the presence of 5a,b and ascorbic acid, using the Φ(^1O2) of free ICG of 15.0% as reference.

[5] = ABTS radical cation decolorization assay; details: 10 min incubation, pH 7.4, λ = 734 nm
Procedure: The ABTS^•+ (2,2′-azinobis-(3-ethylbenzothiazoline-6-sulfonic acid) decolorization assay, based on the method of Re et al., was performed in the concentration range of 1 to 25 µM according to protocols previously reported by our group. The reagent was prepared in a 0.1 M potassium phosphate buffer (pH 7.4) and activated overnight with MnO2 [89]. Prior to use, the stability of the ABTS^•+ reagent was verified by checking its absorbance at λ = 734 nm over one hour, ensuring a consistent absorption of around 0.7. The mixtures were incubated for 10 min in the dark at room temperature. The absorbance of the samples is given by the remaining unreacted reagent radical, and it is inversely proportional to the amount of ABTS^•+ neutralized. The ABTS^•+ scavenging activity of compounds was calculated using Equation (2).(2) ABTS^•^+ scavenging (%)=control absorbance−sample absorbance/control absorbance×100

[6] = tested on: rat microsomal membrane lipid peroxidation; experiment: Lipid peroxidation inhibition assay (LPI), 2-thiobarbituric acid method; type: biochemical; details: ascorbic acid/Fe^2+ system, 37 °C, 45 min
Procedure: Rat liver microsomes were homogenized in saline, and the resulting homogenates were centrifuged at 9000× g for 20 min at 4 °C to remove cell debris. The supernatant underwent ultracentrifugation at 110,000× g for 40 min at 4 °C. The pelleted microsomal fraction was subsequently washed with saline via another round of ultracentrifugation under identical conditions. Thereafter, the pellet was resuspended in Tris-HCl buffer (pH 7.4) to achieve a concentration equivalent to 0.5 g liver per mL and was stored until further analysis (at −80 °C). For the assay, the microsomal preparation was thermally inactivated by incubation at 90 °C for 90 s, then homogenized again and diluted to a final concentration equivalent to 4 mM fatty acid equivalents. […] All mixtures were incubated at 37 °C under air with continuous shaking. […] This was followed by heating at 90 °C for 20 min and centrifugation at 3000 rpm for 15 min. As a result of the breakdown of unsaturated fatty acids, malondialdehyde reacts with the 2-thiobarbituric acid to produce a pink compound due to the formation of a Schiff base. The extent of lipid peroxidation was measured spectrophotometrically at 535/600 nm, which is proportional to the amount of the chromogen reaction product formed between 2-thiobarbituric acid and malondialdehyde. The determinations were performed in triplicate, and the standard deviation was within ±10% of the mean value.

## CC(=O)/C=C/C1=C(C)CCCC1(C)C [β-ionone]
OR51E2
  threshold concentration to trigger a cellular response: under 10 µM

## CC1(C)C(/C=C/C=C/C=C/C=C2\N(CCCCS(=O)(=O)O)c3ccc4ccccc4c3C2(C)C)=[N+](CCCCS(=O)(=O)[O-])c2ccc3ccccc3c21 [ICG, indocyanine green]
[1]
  ^1O2 quantum yield Φ(^1O2) of ICG alone: 15%

## O=C([O-])CN(CCN(CC(=O)O)CC(=O)O)CC(=O)[O-].[Na+].[Na+] [EDTA-Na2, ethylenediaminetetraacetic acid disodium salt, reference compound]
[2]; 50 nM
  % of ferrous ions chelation: 11.71%
[2]; 100 nM
  % of ferrous ions chelation: 20.00%
[2]; 150 nM
  % of ferrous ions chelation: 36.37%
[2]; 175 nM
  % of ferrous ions chelation: 61.98%
[2]; 200 nM
  % of ferrous ions chelation: 86.53%

## O=C1O[C@H]([C@@H](O)CO)C(O)=C1O [Ascorbic acid, ascorbic acid, reference compound]
[3]
  IC50: 50.2 µM
[4]; 10^−5 M ICG and scavenger, 785 nm laser, 100 s
  ^1O2 quantum yield Φ(^1O2) of ICG in the presence of the scavenger: 9.4%
[4]; addition of scavenger to ICG
  reduction of ^1O2 quantum yield of ICG compared to ICG alone: 5.6%

## Cc1c(C)c2c(c(C)c1O)CCC(C)(C(=O)O)O2 (stereo not shown) [Trolox, reference compound]
[5]
  IC50: 15.9 µM
[3]
  IC50: 35.8 µM
[6]
  IC50: 25 µM
